The values that follow come from patent US10100011B2, “Pentadienoyl piperidine derivative and use thereof” (Industry-Academic Cooperation Foundation, Yonsei University, priority 2014, dated 2018).

One assay concerns C57BL/6J mice. Briefly: Body weight and visceral fat weight in mice fed high-fat diet. The following applies: high-fat diet with about 0.05% compound (sibutramine about 0.01%), 10 weeks. Format: in vivo, mouse. On the procedure: An obesity induction diet used in this experiment was a high-fat diet (HFD: 40% fat calories, 17 g of lard+3% corn oil/100 g diet), and the compositions of diets including the LJ-2501, LJ-2488, LJ-2495, LJ-2496 compounds were identical to that of HFD, except that each of the compounds was included in an amount of about 0.05% (Table 2). As a control drug, an anti-obesity drug, sibutramine (Sibut), was added in an amount of about 0.01% to the high-fat diet and a normal diet group (Chow) was fed with commercial rodent chow.
5-week old 40 male C57BL/6J mice (Orient Bio., Korea) were fed with hard feed and accommodated in a laboratory environment for one week. Subsequently, in accordance with a randomized block method, the mice were randomly grouped into a normal diet group, a high-fat diet control group, two experimental substance groups, and […] and raised for a total of 10 weeks (n=8/group). Diets were supplied with water between 10 am and 11 am every day. An intake amount was measured every day and the body weights of the mice were measured every week. To prevent temporal weight change due to feed intake, feedboxes were removed and, after two hours, the body weights were measured. The experimental animals were fasted for 12 hours or more and then anesthetized with diethyl ether, followed by collecting blood, liver, and visceral adipose tissues (epididymal fat, perirenal fat, mesenteric fat, and retroperitoneal fat). The collected samples were washed with 0.1 M phosphate buffered saline (pH 7.4) and then weighed. Blood samples collected from abdominal aortas were centrifuged at 1000×g for 15 minutes, thereby separating plasma.

A further assay deals with 3T3L1 cells. Briefly: Adipocyte differentiation inhibition in preadipocytes (Oil-red O staining). Format: cell-based, mouse. The note with it: for adipocyte differentiation inhibition effect (in words): different concentrations. The method, then: Preadipocytes, 3T3L1 cells, were aliquoted into a 12-well plate and cultured in a DMEM medium containing 1% penicillin-streptomycin, 1% nonessential amino acid, and 10% fetal bovine serum (FBS) in a 5% CO2 incubator at 37° C. until confluence. The 3T3L1 cells grown to confluence were cultured for two days in a medium containing 0.5 mM isobutyl-methylxanthine, 1 μM dexamethasone (MDI), and 1 μg/ml insulin, thereby being differentiated into adipocytes. Subsequently, the differentiated adipocytes were further cultured for two days in a DMEM medium including 1 μg/ml insulin, thereby being differentiated into mature adipocytes. Subsequently, the differentiated mature adipocytes were further cultured for 10 days while replacing a used DMEM medium with a new DMEM medium every two days. As a result, completely differentiated adipocytes were formed.
3T3-L1 cells were treated with each of a total of four novel compound types at different concentrations every two days from the first day of cell differentiation induction by addition of DMI. Each of the derivative compounds was dissolved in DMSO and then used. A negative control group including only DMSO was included in this experiment. Cell culture was carried out for 14 days. When differentiation was completed, a medium was removed and lipid droplets contained in differentiated adipocytes were stained. To stain the lipid droplets, cells were washed with phosphate buffered saline (PBS) twice and then fixed with 10% buffered neutral formalin for one hour, followed by washing with PBS once. Subsequently, 1 ml of Oil-red-O dye for staining lipid droplets red was fed into a 12-well plate and lipid droplets were stained for one hour, followed by washing with distilled water twice. To measure the concentration of neutral fat contained in the differentiated 3T3L1 cells, the stained lipid droplets were dissolved in 1 ml of isobutanol, followed by measuring an O.D value at 600 nm.

In the case of `CC(C)CC(N(C)C)C1(c2ccc(Cl)cc2)CCC1` (stereo not shown) [sibutramine, reference compound], in the assay with C57BL/6J mice, the “visceral fat reduction effect, change vs HFD (given with minus sign)” value is given as −22% and the “weight reduction effect, change in cumulative weight gain vs HFD (given with minus sign)” value was −33%.
`CCOc1ccc(/C=C/C=C/C(=O)N2CCCCC2)cc1` [LJ-2495, (2E,4E)-5-(4-ethoxyphenyl)-1-(piperine-1-yl)penta-2,4-diene-1-one]: in the assay with 3T3L1 cells, the “adipocyte differentiation inhibition effect (in words)” value is reported as “did not exhibit an adipocyte differentiation inhibition effect”.
The same measure, in the same setting: the entry for `CCCOc1ccc(/C=C/C=C/C(=O)N2CCCCC2)cc1` [LJ-2496, (2E,4E)-1-(piperine-1-yl)-5-(4-propoxyphenyl)penta-2,4-diene-1-one] is “did not exhibit an adipocyte differentiation inhibition effect”.
For the compound `COc1ccc(OC)c(/C=C/C=C/C(=O)N2CCCCC2)c1` [LJ-2488, (2E,4E)-5-(2,5-dimethoxyphenyl)-1-(piperine-1-yl)penta-2,4-diene-1-one], the 50% effective concentration (EC50) – broadly, the midpoint of the concentration-response curve – in the assay on 3T3L1 cells (Mus musculus, 3T3-L1, treated every two days during 14 days differentiation, Oil-red O O.D. 600 nm, read-out: preadipocyte differentiation inhibition effect, EC50 value) amounted to 2800 µM. Besides, in the assay on C57BL/6J mice, the “visceral fat reduction effect, change vs HFD (given with minus sign)” value is reported as −6% and the “weight reduction effect, change in cumulative weight gain vs HFD (given with minus sign)” value is recorded as −14%.
